Measured values from PMC6264316, “The Triterpenes 3β-Lup-20(29)-en-3-ol and 3β-Lup-20(29)-en-3-yl Acetate and the Carbohydrate 1,2,3,4,5,6-Hexa-O-acetyl-dulcitol as Photosynthesis Light Reactions Inhibitors” (Molecules, 2011).

Assays:
[1] = molecular target: T1, isolated CF1 (Ca2+-ATPase) (Spinacia oleracea, UniProt P00825+P06450); experiment: Ca2+-ATPase activity, released Pi; assay type: biochemical; conditions: read-out: Ca^2+-ATPase (%)
T1 construct: gene atpB
Excerpt: Ca2+-ATPase activity, released Pi on isolated CF1 (Ca2+-ATPase)

[2] = molecular target: T2, Mg2+-ATPase bound to thylakoid membrane (membrane-bound CF1; H+-ATPase) (Spinacia oleracea, UniProt P00825+P06450); experiment: light-triggered Mg2+-ATPase activity in thylakoids, released Pi; assay type: biochemical; conditions: read-out: Mg^2+-ATPase (%)
T2 construct: gene atpB; with ATP synthase subunit a, chloroplastic; ATP synthase subunit b, chloroplastic; ATP synthase subunit b', chloroplastic; ATP synthase subunit c, chloroplastic
Excerpt: light-triggered Mg2+-ATPase activity in thylakoids, released Pi on Mg2+-ATPase bound to thylakoid membrane (membrane-bound CF1; H+-ATPase)

T1 sequence (P00825 whole entry): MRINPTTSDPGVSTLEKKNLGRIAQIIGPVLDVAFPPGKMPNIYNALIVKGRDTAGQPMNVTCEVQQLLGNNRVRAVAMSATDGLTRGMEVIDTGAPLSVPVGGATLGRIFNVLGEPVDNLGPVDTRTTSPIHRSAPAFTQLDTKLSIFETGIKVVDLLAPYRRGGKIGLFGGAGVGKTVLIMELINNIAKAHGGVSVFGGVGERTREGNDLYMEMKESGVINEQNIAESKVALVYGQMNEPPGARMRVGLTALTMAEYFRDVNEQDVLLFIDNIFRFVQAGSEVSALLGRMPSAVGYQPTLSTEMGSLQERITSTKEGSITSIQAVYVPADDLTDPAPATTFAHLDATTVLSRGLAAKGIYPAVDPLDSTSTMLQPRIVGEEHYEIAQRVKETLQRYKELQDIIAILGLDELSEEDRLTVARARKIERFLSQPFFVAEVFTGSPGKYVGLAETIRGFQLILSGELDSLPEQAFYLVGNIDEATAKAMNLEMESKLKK
T1 sequence (P06450 whole entry): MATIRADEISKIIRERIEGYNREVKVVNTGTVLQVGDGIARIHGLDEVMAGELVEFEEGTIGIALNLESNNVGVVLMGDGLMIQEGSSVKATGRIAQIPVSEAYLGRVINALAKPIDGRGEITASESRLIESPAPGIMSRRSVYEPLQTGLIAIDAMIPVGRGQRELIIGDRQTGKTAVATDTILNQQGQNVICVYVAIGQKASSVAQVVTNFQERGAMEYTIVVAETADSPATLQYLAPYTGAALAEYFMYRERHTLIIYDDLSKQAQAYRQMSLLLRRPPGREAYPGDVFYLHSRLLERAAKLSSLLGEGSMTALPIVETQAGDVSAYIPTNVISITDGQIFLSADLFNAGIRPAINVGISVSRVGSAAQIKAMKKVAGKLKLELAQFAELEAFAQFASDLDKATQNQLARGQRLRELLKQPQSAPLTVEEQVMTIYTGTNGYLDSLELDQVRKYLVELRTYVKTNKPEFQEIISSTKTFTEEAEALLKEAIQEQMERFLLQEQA
T1 sequence (P05435 42-364 partner): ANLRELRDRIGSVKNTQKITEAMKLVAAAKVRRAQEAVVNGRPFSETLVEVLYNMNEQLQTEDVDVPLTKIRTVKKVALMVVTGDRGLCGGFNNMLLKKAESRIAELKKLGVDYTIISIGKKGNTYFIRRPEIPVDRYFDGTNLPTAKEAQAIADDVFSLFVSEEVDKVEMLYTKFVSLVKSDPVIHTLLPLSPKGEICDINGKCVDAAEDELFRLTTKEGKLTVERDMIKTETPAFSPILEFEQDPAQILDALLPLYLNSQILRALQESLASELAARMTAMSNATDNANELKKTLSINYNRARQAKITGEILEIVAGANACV
T1 sequence (P11402 71-257 partner): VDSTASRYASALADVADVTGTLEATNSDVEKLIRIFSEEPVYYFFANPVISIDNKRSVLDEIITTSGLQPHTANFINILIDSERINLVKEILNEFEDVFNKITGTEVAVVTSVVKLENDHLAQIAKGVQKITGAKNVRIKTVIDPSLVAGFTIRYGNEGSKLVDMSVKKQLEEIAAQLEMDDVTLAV
T1 sequence (P00833 whole entry partner): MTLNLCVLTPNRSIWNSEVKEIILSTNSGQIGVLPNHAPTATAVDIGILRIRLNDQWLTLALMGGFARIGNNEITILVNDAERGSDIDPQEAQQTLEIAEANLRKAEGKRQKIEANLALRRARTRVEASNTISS

C=C(C)[C@@H]1CC[C@]2(C)CC[C@]3(C)[C@H](CC[C@@H]4[C@@]5(C)CC[C@H](O)C(C)(C)[C@@H]5CC[C@]43C)[C@@H]12 [compound 1, 3β-Lup-20(29)-en-3-ol] was tested, and the activity at 300 µM [1] was 179% and the activity at 100 µM [2] was 65%.
